This passage reports inhibition and Ki results from US8653075B2, “Therapeutic methods employing substituted piperidines which are CCR3 antagonists” (Boehringer Ingelheim International GmbH, priority 2009, dated 2014).

For the test, the target named is T1, human chemokine receptor CCR3 (Homo sapiens, UniProt P51677).
T1 construct: expressed in transfected cells; host or cells: K562 cell line (hCCR3-C1 cells), membrane preparation
T1 sequence (P51677 1-355): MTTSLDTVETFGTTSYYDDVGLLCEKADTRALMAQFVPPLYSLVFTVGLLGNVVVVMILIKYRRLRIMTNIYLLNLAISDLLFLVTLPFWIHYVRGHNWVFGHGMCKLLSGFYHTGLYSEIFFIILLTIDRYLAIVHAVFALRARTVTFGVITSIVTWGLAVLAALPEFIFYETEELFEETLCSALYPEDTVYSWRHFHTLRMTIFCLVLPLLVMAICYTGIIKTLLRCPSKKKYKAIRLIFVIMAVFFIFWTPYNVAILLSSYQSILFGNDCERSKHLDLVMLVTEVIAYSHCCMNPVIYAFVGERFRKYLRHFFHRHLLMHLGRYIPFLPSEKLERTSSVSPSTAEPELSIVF
Briefly: CCR3 receptor binding assay (SPA, 125I-eotaxin-1 displacement, hCCR3-C1 K562 cell membranes). As to conditions: human Eotaxin-1 at human CCR3-Rezeptor; for inhibition at 1 µM: 1 μM test compound, read-out: CCR3 % inh @ 1 μM; for Ki: dose range 0.1 to 10000 nM. In short, it runs like this:
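SPA displacement of recombinant human 125I-eotaxin-1 (30.000 dpm per well) from membranes of CCR3-transfected K562 cells (0.5-10 μg protein/well) on WGA beads. Buffer was 25 mM HEPES, 25 mM MgCl2, 1 mM CaCl2, 0.1% BSA; incubation 2 h at room temperature. Specific binding was total minus NSB (unlabelled eotaxin-1), giving % inhibition and Ki.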

In the case of `COc1cc(C(=O)N(C)C)cc(NC(=O)[C@H]2CCC(=O)N2C2CCN(Cc3ccc(Cl)c(C)c3)CC2)n1` [Example 183], the inhibition at 1 µM is 75% and the affinity, expressed as Ki, was 232 nM. `CCCCc1cc(C(=O)N(C)C)cc(NC(=O)C2CCC(=O)N2C2CCN(Cc3ccc(Cl)c(C)c3)CC2)n1` (centres unmarked) [Example 213]: the inhibition at 1 µM amounted to 66% and affinity was put at a Ki of 414 nM.

As for `Cc1cc(CN2CCC(N3C(=O)CC[C@@H]3C(=O)Nc3cccc(C(=O)NCC(F)F)c3)CC2)ccc1Cl` [Example 145], the inhibition at 1 µM was 99% and the Ki was determined as 8 nM. In the case of `Cc1cc(CN2CCC(N3C(=O)CC[C@H]3C(=O)NCc3ccnn3C)CC2)ccc1Cl` [Example 45], the inhibition at 1 µM came out at 50%.

As to `CCC(C)N(C)C(=O)c1cccc(NC(=O)[C@H]2CCC(=O)N2C2CCN(Cc3ccc(Cl)c(C)c3)CC2)c1` (some centres unmarked) [Example 138], the inhibition at 1 µM was 101% and the Ki is 4 nM. For `Cc1cc(CN2CCC(N3C(=O)CC[C@@H]3C(=O)Nc3cccnc3)CC2)ccc1Cl` [Example 36] the same measures were 80% and 159 nM.

As to `COc1cccc2c1CN(C(=O)[C@@H]1CCC(=O)N1C1CCN(Cc3ccc(Cl)c(C)c3)CC1)CC2` [Example 55], the inhibition at 1 µM came to 78% and the Ki was 235 nM. The corresponding values for `Cc1cc(CN2CCC(N3C(=O)CC[C@@H]3C(=O)Nc3cccc(N(CC(=O)N(C)C)S(C)(=O)=O)c3)CC2)ccc1Cl` [Example 8] are 99% and 9 nM. For `Cc1cc(CN2CCC(N3C(=O)CC[C@@H]3C(=O)Nc3cccc(C(=O)NC4CCC4)c3)CC2)ccc1Cl` [Example 134] the same measures were 101% and 3 nM. For `Cc1nccc(-c2cccc(NC(=O)[C@H]3CCC(=O)N3C3CCN(Cc4ccc(Cl)c(C)c4)CC3)c2)n1` [Example 24], the inhibition at 1 µM turned out to be 99% and the Ki is 22 nM. The corresponding values for `Cc1cc(CN2CCC(N3C(=O)CC[C@H]3C(=O)NCc3ccccc3OC(F)F)CC2)ccc1Cl` [Example 38] are 78% and 211 nM. The corresponding values for `CCNS(=O)(=O)c1cccc(NC(=O)[C@H]2CCC(=O)N2C2CCN(Cc3ccc(Cl)c(Cl)c3)CC2)c1` [Example 6] are 100% and 7 nM. On to `Cc1cc(C(=O)N2CCOCC2)cc(NC(=O)[C@H]2CCC(=O)N2C2CCN(Cc3ccc(Cl)c(C)c3)CC2)n1` [Example 140], for which the inhibition at 1 µM was 98% and the affinity, expressed as Ki, was 6 nM. Consider `Cc1cc(CN2CCC(N3C(=O)CC[C@@H]3C(=O)Nc3cccc(C(=O)N(C)CCO)c3)CC2)ccc1Cl` [Example 159], for which the inhibition at 1 µM is 96% and the Ki came out at 19 nM. As to `Cc1cc(CN2CCC(N3C(=O)CC[C@H]3C(=O)N3CCc4cc(F)ccc4C3)CC2)ccc1Cl` [Example 62], the inhibition at 1 µM amounted to 63% and the affinity, expressed as Ki, was 507 nM.

Turning to `Cc1cc(CN2CCC(N3C(=O)CC[C@@H]3C(=O)Nc3cc(C(=O)N(C)C)cc(C(C)C)n3)CC2)ccc1Cl` [Example 182], the inhibition at 1 µM was 99% and the Ki was found to be 4 nM. The corresponding values for `COC(=O)c1cc(NC(=O)[C@H]2CCC(=O)N2C2CCN(Cc3ccc(Cl)c(C)c3)CC2)cc(C(=O)N(C)C)c1` [Example 108] are 98% and 4 nM. The corresponding values for `CN1C[C@H](C(=O)Nc2cc(C3CC3)nn2C)N(C2CCN(Cc3ccc(OC(F)(F)F)c(F)c3)CC2)C1=O` [Example 197] are 44% and 1250 nM. The corresponding values for `Cc1cc(NC(=O)[C@H]2CCC(=O)N2C2CCN(Cc3ccc(Cl)c(C)c3)CC2)cc(C(=O)N(C)C)c1` [Example 167] are 98% and 6 nM. `Cc1cc(CN2CCC(N3C(=O)N(C)C[C@H]3C(=O)Nc3cccc(-c4cscn4)c3)CC2)ccc1Cl` [Example 125]: the inhibition at 1 µM was 97% and the Ki was 58 nM. The corresponding values for `Cc1cc(-c2noc(C)n2)cc(NC(=O)[C@H]2CCC(=O)N2C2CCN(Cc3ccc(Cl)c(C)c3)CC2)n1` [Example 193] are 99% and 19 nM. The corresponding values for `CCN(C)S(=O)(=O)c1cccc(NC(=O)[C@H]2CCC(=O)N2C2CCN(Cc3ccc(Cl)c(C)c3)CC2)c1` [Example 20] are 97% and 9 nM. The corresponding values for `COc1cccc2c1CCN(C(=O)[C@@H]1CCC(=O)N1C1CCN(Cc3ccc(Cl)c(C)c3)CC1)C2` [Example 71] are 49% and 810 nM.

Consider `Cc1cc(CN2CCC(N3C(=O)CC[C@@H]3C(=O)NCc3cccc4[nH]ccc34)CC2)ccc1Cl` [Example 68], for which the inhibition at 1 µM is 48% and affinity was put at a Ki of 715 nM. For `Cc1cc(CN2CCC(N3C(=O)N(C)C[C@@H]3C(=O)Nc3cc(C4CC4)nn3C)CC2)ccc1Cl` [Example 130] the same measures were 91% and 77 nM. Turning to `CCOC(=O)Cc1csc(NC(=O)[C@H]2CCC(=O)N2C2CCN(Cc3ccc(Cl)c(C)c3)CC2)n1` [Example 98], the inhibition at 1 µM is 75% and the affinity, expressed as Ki, was 202 nM.

With `CN1C[C@H](C(=O)Nc2cc(C3CC3)nn2C)N(C2CCN(Cc3ccc(Cl)c(C(F)(F)F)c3)CC2)C1=O` [Example 199], the inhibition at 1 µM came to 66% and the affinity, expressed as Ki, was 453 nM. For `Cc1cc(CN2CCC(N3C(=O)CC[C@H]3C(=O)NC3CCN(c4ccccn4)CC3)CC2)ccc1Cl` [Example 60] the same measures were 65% and 430 nM. For `Cc1cc(CN2CCC(N3C(=O)CC[C@@H]3C(=O)Nc3cccc(S(=O)(=O)CCO)c3)CC2)ccc1Cl` [Example 26] the same measures were 97% and 27 nM. The corresponding values for `CNc1nc(-c2cccc(NC(=O)[C@H]3CN(C)C(=O)N3C3CCN(Cc4ccc(Cl)c(C)c4)CC3)c2)no1` [Example 122] are 95% and 30 nM. On to `Cc1cc(CN2CCC(N3C(=O)CC[C@@H]3C(=O)Nc3cccc(C(=O)N4CCCC4)c3)CC2)ccc1Cl` [Example 146], for which the inhibition at 1 µM is 100% and the Ki turned out to be 8 nM.

Consider `Cc1cc(CN2CCC(N3C(=O)CC[C@@H]3C(=O)Nc3ccc4[nH]ncc4c3)CC2)ccc1Cl` [Example 31], for which the inhibition at 1 µM was 93% and the affinity, expressed as Ki, was 50 nM. As for `COC(=O)c1cc(NC(=O)[C@H]2CCC(=O)N2C2CCN(Cc3ccc(Cl)c(C)c3)CC2)cn1C` [Example 94], the inhibition at 1 µM is 94% and the Ki is 52 nM.

As to `Cc1cc(CN2CCC(N3C(=O)CC[C@@H]3C(=O)N3CCc4ccccc43)CC2)ccc1Cl` [Example 13], the inhibition at 1 µM is 71% and the Ki came to 373 nM. For `CNC(=O)c1cc(NC(=O)[C@H]2CCC(=O)N2C2CCN(Cc3ccc(Cl)c(C)c3)CC2)cc(OC)c1` [Example 174] the same measures were 99% and 13 nM. As for `Cc1cc(NC(=O)[C@H]2CCC(=O)N2C2CCN(Cc3ccc(Cl)c(C)c3)CC2)cc(-c2nnnn2C)c1` [Example 114], the inhibition at 1 µM worked out at 99% and the Ki amounted to 4 nM.
